Where “and” joins values, the source holds several entries; their conditions need not be identical. Identical values can stand only once. Entries after “also recorded” stand apart in the source; their conditions may differ. Like-named read-outs stand apart in the source and are kept apart here.
Key:
[1] = Pharmacokinetic data for study drugs; parameters: species or system RA patients; conditions: human, in vivo; for concentration at 7 day: read-out: Cmin
[2] = tested on: mAB/LPS-induced experimental arthritis; assay: Histopathological evaluation of the tibiotarsal joint of arthritic mice; type: in vivo; parameters: key to Fibrin deposition / Inflammatory infiltration in the synovial membrane / Pannus formation (reflected by proliferation of granulation tissue) / Cartilage disruption / Hyaline cartilage destruction (reflected by resorption/erosion in the cartilage) / Subchondral bone destruction (reflected by resorption/erosion by osteoclasts and loss of bone) / Overall assessment: “determined as arthritis” / Synovial hyperplasia / Synovial villus formation: 0=unremarkable; 1=minimal; 2=mild; 3=moderate; 4=marked; conditions: 25 mg/kg
Protocol: Compound A), total 16 animals were tested with Vehicle Control or 25 mg/kg of (+) isomer for histopathological evaluation. […] Each limb from the middle of the tibia and distally, to include the ankle joint, i.e., the joint between the leg and foot (tibial-tarsus joint), was trimmed mid-longitudinally, and both halves were embedded in paraffin and slides of 6 micron thickness were cut and stained by hematoxylin and eosin. Histopathological changes in the joints were described and scored, using semiquantitative grading of five grades (0-4), taking into consideration the severity of the changes (0=unremarkable, 1=minimal, 2=mild, 3=moderate, 4=marked). […] All typical ranges of changes characteristically seen in this arthritis were noted.

[3] = tested on: mAB/LPS-induced experimental arthritis; assay: mAB/LPS-induced experimental murine arthritogenic model, paw thickness (five treatment days); type: in vivo, BALB/c male mice
Protocol: The mice were administered with 1, 5 and 25 mg/kg once daily oral (PO) gavage throughout five successive treatment days.

[4] = tested on: collagen antibody-induced arthritis; assay: Mouse model of collagen antibody-induced arthritis (CAIA); type: in vivo, Male BALB/c mice
Protocol: (§1) Cytokine and chemokine protein levels were analyzed by cytometric bead array on a Luminex 100. CAIA model: […] Compound A and ETN were administered once daily on days 3-13. […] Both hind paws (left and right) of each animal were examined for signs of arthritogenic responses in blinded fashion. Arthritic reactions were scored and recorded according to a 0-4 scale in ascending order of severity. Hind paw thickness was measured in mm using a Mitutoyo Electronic Digital Caliper.

[5] = tested on: mAB/LPS-induced experimental arthritis; assay: Antibody-induced arthritis in mice (mAb/LPS model, 11 treatment days)
[6] = tested on: stimulated primary human normal chondrocytes; assay: Cell surface protein expression assay (flow cytometry); type: cell-based
Protocol: Cell Surface Protein Expression Assay: Normal primary human chondrocyte were thawed into a T-75 flask and grown for 2-3 weeks to reach confluency in 20% premium non-heat inactivated FBS-DMEM/F-12 (Invitrogen 11330-032)+1% pen/strep and 1% L-Glutamine. The cells were plated (1.0×10^6 cells/10 ml of complete media) in a 100×20 mm tissue culture plate. The next day, the media was replaced with 10 ml serum-free media for 20 min to serum starve the cells. Compound A (0.1-10 μM) was added for 1 hour at 37° C. (0.25% final DMSO). In addition, cytokines IL-1β (10 ng/ml), IL-6 (10 ng/ml), and IL-6R (20 ng/ml) were added and the cells continued incubation overnight (18 hours) at 37° C. The cells were harvested by a non-enzymatic cell dissociation solution (Millipore S-004-B) then washed once in cold stain buffer (BD Pharmigen 554656) at 300×g for 5 minutes. The cells were resuspended and aliquoted into three 5 ml round bottom tubes plus two additional aliquots for control. The cells were washed again in cold stain buffer at 300×g for 5 minutes. The cells were stained with PE mouse anti-human: CD54 (ICAM-1) (BD Pharmigen 555511) and Integrin αVβ3 anti (Millipore MAB1976H). The samples were vortexed and incubated for 30 minutes at 4° C. while being protected from light. […] After a final wash, 500 μl of stain buffer was added to each sample and analyzed by flow cytometry.

[7] = tested on: Human bone marrow cells; assay: Osteoclastogenesis induced by dexamethasone and Vitamin D; type: cell-based; conditions: 10 nM dexamethasone and 10 nM Vitamin D; day 7
Protocol: Human bone marrow cells were treated with Compound A and with 10 nM dexamethasone and 10 nM Vitamin D to differentiate cells into osteoclasts. Fresh media and Compound A were added every 3 days. At day 7 supernatant was collected and adherent cells were isolated to obtain RNA. Day 7 cells were stained with TRAPS and the number of osteoclasts was counted.

[8] = tested on: rheumatoid arthritis synovial fibroblasts stimulated with IL-1, IL-6 and IL-6R; assay: IL-7 gene expression assay in synovial fibroblasts; type: cell-based, human
Protocol: (§2) IL-7 Gene Expression Assay: […] Normal primary human chondrocytes and rheumatoid arthritis synovial fibroblasts purchased from Asterand (Detroit, Mich.) were thawed into a T-75 flask and cultured for 2-3 weeks to reach confluency. The media was 20% premium non-heat inactivated FBS-DMEM/F-12 (Invitrogen 11330-032)+1% pen/strep and 1% L-Glutamine. […] Upon reaching 90% confluency (usually in 1-2 days post-plating), the cells were serum starved for 20 hours by replacing the complete media with 2 ml serum-free media. The cells were treated with the test compounds for 1 hour at 37° C. […] The cells were then washed with cold PBS. Ribonucleic acid (RNA) was isolated by adding 600 μl RLT lysis buffer (Qiagen RNAEasy kit cat#74104), passing the cells through the Qiashredder (Qiagen cat#23800) followed by RNA isolation according to manufacturers' instructions (Qiagen RNAEasy kit). Purified RNA was reverse transcribed into cDNA with thermal cycler for real-time reverse transcriptase polymerase chain reaction (RTPCR) analysis. Interleukin-7 gene expression assays were carried out using the 7500 Real Time PCR system. A GAPDH gene expression assay control was run for each sample and was used as a normalization control.

[9] = tested on: normal primary human chondrocytes stimulated with IL-1, IL-6 and IL-6R; assay: IL-7 gene expression assay in chondrocytes; type: cell-based
Protocol: as §2

[10] = tested on: Normal human osteoblast cells (nHOST); assay: Osteoblast production of RANKL and OPG (ELISA); type: cell-based; conditions: 7 days with 10 nM dexamethasone and 10 nM Vitamin D
Protocol: Normal human osteoblast cells (nHOST, source: Lonza) were plated in 6 well plates and incubated overnight for cell attachment. Cells were treated for 7 days with Compound A and with 10 nM dexamethasone and 10 nM Vitamin D. Compound and media was refreshed every 3-4 days. On Day 7 supernatent was collected for RANKL and OPG by ELISA.

[11] = tested on: Human peripheral blood total T cells stimulated with anti-CD3 antibody; assay: Cytokine and chemokine production by anti-CD3-stimulated T cells (cytometric bead array, Luminex 100); type: cell-based
Protocol: as §1

[12] = cited from earlier work
[13] = tibiotarsal joint, grade 0-4, individual animals No. 25-32

Compound: CCOc1cc([C@@H](CS(C)(=O)=O)N2Cc3cccc(NC(=O)C4CC4)c3C2=O)ccc1OC [Compound B, (S)-N-(2-(1-(3-ethoxy-4-methoxyphenyl)-2-(methylsulfonyl)ethyl)-3-oxoisoindolin-4-yl)cyclopropanecarboxamide]
- Cmax ([1]; 200-mg day-7): 195 ng/mL
- concentration at 7 day ([1]; 200-mg day-7): 40 ng/mL

Compound: CCOc1cc([C@@H](CS(C)(=O)=O)N2C(=O)c3cccc(NC(C)=O)c3C2=O)ccc1OC [Compound A, (S)-N-(2-(1-(3-ethoxy-4-methoxyphenyl)-2-(methylsulfonyl)ethyl)-1,3-dioxoisoindolin-4-yl)acetamide]
- Cmax ([1]; 20-mg, day-7): 419 ng/mL
- concentration at 7 day ([1]; 20-mg, day-7): 4.9 ng/mL
- arthritis by histopathological evaluation ([2]; all samples from treated animals): practically no existing arthritis
- Cartilage disruption [2, 13]: 0
- Fibrin deposition [2, 13]: 0 (6×) and 1 (2×)
- Hyaline cartilage destruction (reflected by resorption/erosion in the cartilage) [2, 13]: 0
- Inflammatory infiltration in the synovial membrane [2, 13]: 0
- Overall assessment: “determined as arthritis” [2, 13]: 0
- Pannus formation (reflected by proliferation of granulation tissue) [2, 13]: 0
- Subchondral bone destruction (reflected by resorption/erosion by osteoclasts and loss of bone) [2, 13]: 0
- Synovial hyperplasia [2, 13]: 0
- Synovial villus formation [2, 13]: 0
- hind paw thickness (suppression of paw swelling) ([3]; 5 mg/kg PO once daily, limited to Day 9, vs. Vehicle Control): A lesser extent (p<0.05 vs. Vehicle Control)
- hind paw thickness (suppression of paw swelling) ([3]; 25 mg/kg PO once daily, vs. Vehicle Control): highly statistically significant (p<0.01 vs. Vehicle Control) and constant suppression of paw swelling; also recorded: statistically significant reduction of paw swelling
- arthritis by histopathological analysis ([4]; 25 mg/kg): practically no existing arthritis
- hind-paw arthritic reaction scores and thickness ([4]; 5 and 25 mg/kg orally once daily on days 3-13): significantly reduced (p<0.01)
- synovial hyperplasia, synovial villus formation, fibrin deposition, inflammatory infiltration in the synovial membrane, pannus formation, cartilage disruption, and subchondral bone destruction ([4]; high dose): inhibited
- mean group arthritogenic scoring value of both hind paws ([5]; 25 mg/kg, vs. Vehicle Control on Days 9, 11 and 14, respectively): statistically to extremely significant reductions (p<0.05, p<0.01, p<0.001)
- treatment-related adverse reactions ([5]; 5 and 25 mg/kg PO once daily, 11 days, 14-day observation period): No obvious treatment-related adverse reactions
- mean group percentage change in hind paw thickness vs. arthritis induction initiation (Day 0) ([5]; 5 or 25 mg/kg, vs. Vehicle Control, Days 7, 9, 11 & 14): highly significantly lower (P<0.01)
- alpha-v-beta-3 (αvβ3) integrin expression [6]: inhibited expression
- intercellular adhesion molecule 1 (ICAM-1) expression [6]: inhibited expression
- osteoclast formation (osteoclastogenesis) [7]: inhibit osteoclast formation; also recorded: significantly inhibits osteoclastogenesis
- IL-7 gene expression ([8]; 0.1-10 μM): significantly inhibited
- IL-7 gene expression ([9]; 0.1-10 μM, normal primary human chondrocytes): significantly inhibited
- inhibition of IL-7 gene expression compared with methotrexate and etanercept ([9]; dose ranges encompassing the respective Cmax of MTX and ETC): more effective inhibitor of IL-7 gene expression than methotrexate and etanercept
- sRANKL ([10]; 1 μM and 10 μM): significant decrease
- OPG [10]: increase
- RANKL/OPG ratio [10]: significantly inhibit
- IC50s, production of all T cell cytokines and chemokines measured (IL-2, IL-4, IL-13, IFN-γ, TNF-α, CXCL10, CCL3, and CCL4) ([11]; anti-CD3 antibody, 2 days, range over all analytes): 0.015 to 0.36 µg/mL
- inhibition of IL-2, IL-4, IL-13, IFN-γ, TNF-α, CXCL10, CCL3, and CCL4 ([11]; human T cells): resulted in inhibition

Compound: CN(Cc1cnc2nc(N)nc(N)c2n1)c1ccc(C(=O)N[C@@H](CCC(=O)O)C(=O)O)cc1 [MTX, methotrexate]
- Cmax ([12]; Depending on RA patients): 300 to 1040 ng/mL
- maximum plasma concentration (Cmax) [12]: 400 ng/mL
- IL-7 gene expression ([8]; comparators): no significant effects

Compound: etanercept
- Cmax (ng/ml) ([12]; RA patient 6 months 25-mg biweekly): 3000 (1700 to 5600) ng/ml
- Cmax (ng/ml) ([12]; RA patients 50-mg weekly): weekly: 2400 ± 1500 ng/ml
- Cmin ([12]; RA patients): 1200 ± 700 ng/mL
- maximum plasma concentration (Cmax) [12]: 1600 ng/mL
- Bioavailability ([12]; in vivo): 76%
- mean group arthritogenic scoring value of both hind paws ([5]; 6.25 mg/kg, p<0.001 vs. Vehicle Control, study days 7, 9, 11 and 14): highly to extremely statistically lower (p<0.01 & p<0.001, respectively)
- IL-7 gene expression ([8]; comparators): no significant effects
- IC50, IL-13 and IP-10 ([11]; anti-CD3 antibody, 2 days): 0.016 to 0.062 µg/mL
- IC50, TNF-α ([11]; anti-CD3 antibody, 2 days): 0.0015 µg/mL

Source: patent US9272035B2, “Methods and compositions using PDE4 inhibitors for the treatment and management of autoimmune and inflammatory diseases” (Celgene Corporation, priority 2011, dated 2016)
